Where two headings read alike, the source gives them in different places.
What was measured:
[1] = system: HT-29 cells; experiment: In vitro assay for protection of HT-29 cells from necroptosis (TNFα/Smac mimetic/Z-VAD-FMK induction, CCK8 readout); assay type: cell-based; details: read-out: HT-29 (EC50)
[2] = target: T1, RIPK1 Kinase (Homo sapiens, UniProt Q13546); experiment: biochemical
T1 construct: purchased Eurofins (Kinase Profiler service)
T1 sequence (Q13546 1-671): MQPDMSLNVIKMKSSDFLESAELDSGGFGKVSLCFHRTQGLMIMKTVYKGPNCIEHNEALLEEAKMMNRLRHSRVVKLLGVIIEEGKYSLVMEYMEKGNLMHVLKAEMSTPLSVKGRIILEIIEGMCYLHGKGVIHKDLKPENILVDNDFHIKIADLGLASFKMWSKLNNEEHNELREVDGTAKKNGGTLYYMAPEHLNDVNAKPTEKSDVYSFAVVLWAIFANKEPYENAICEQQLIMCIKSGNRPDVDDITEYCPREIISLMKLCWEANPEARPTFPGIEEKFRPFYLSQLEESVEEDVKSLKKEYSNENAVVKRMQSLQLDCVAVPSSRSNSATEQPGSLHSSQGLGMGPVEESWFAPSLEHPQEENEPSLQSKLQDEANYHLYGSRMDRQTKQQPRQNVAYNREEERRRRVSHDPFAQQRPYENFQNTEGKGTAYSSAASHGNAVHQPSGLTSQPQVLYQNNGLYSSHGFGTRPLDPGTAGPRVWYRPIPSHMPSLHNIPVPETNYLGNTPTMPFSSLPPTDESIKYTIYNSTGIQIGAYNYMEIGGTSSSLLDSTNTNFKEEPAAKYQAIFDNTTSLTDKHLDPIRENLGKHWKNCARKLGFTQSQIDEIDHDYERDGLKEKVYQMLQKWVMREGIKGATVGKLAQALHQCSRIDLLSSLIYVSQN
Procedure: This assay was completed using the Kinase Profiler service provided by Eurofins. The experimental method was as follows: The small molecule compound to be tested (0.001-10 µM) and the protein kinase to be tested were incubated with a buffer containing a substrate, 10 mM magnesium acetate, and [γ-^33P-ATP]. The reaction was initiated by adding a Mg\ATPmix. After incubation at room temperature for a period of time, a 3% phosphate solution was added to the buffer to terminate the reaction. Subsequently, 10 µL of the reaction mixture was quantitatively pipetted and dropped onto P30 filter paper. The paper was washed three times with 75 mM phosphate solution and once with methanol. After drying, scintillation fluid was added for scinticounting. The inhibitory activity of the compound was expressed as the half-maximal inhibitory concentration (IC50). The IC50 values were derived by fitting the inhibition rates corresponding to the respective concentration gradients.

[3] = target: MLK2/3 kinase; experiment: In vitro MLK2/3 kinase assay (ADP-Glo method, ICE Bioscience); assay type: biochemical
Procedure: The in vitro MLK2/3 kinase assay utilized the ADP-Glo method provided by ICE Bioscience INC. A drug screening system based on MLK2/3 kinase was employed to evaluate the inhibiting ability of small molecule compounds against kinase activity. The experimental method is as follows: ADP-Glo Method • 1. 2 × ATP/substrate solution and 2 × kinase solution were prepared using kinase reaction buffer. • 2. 40 nL of the compound diluent was transferred into a 384-well plate using an Echo 655. After centrifugation, 2 µL of 2 × kinase solution was added to the 384-well plate, centrifuged at 1000 rpm for 1 min, and incubated at 25°C for 10 min; • 3.2 µL of 2 × substrate and ATP solution was added into the 384-well plate, centrifuged at 1000 rpm for 1 min, and incubated at 25°C for 60 min. • 4. 4 µL of ADP-Glo was transferred to a 384-well plate, centrifuged at 1000 rpm for 1 min, and incubated at 25°C for 40 min. • 5. 8 µL of test solution was transferred to a 384-well plate, centrifuged at 1000 rpm for 1 min, and incubated at 25°C for 40 min. • 6. The luminescence signal was read using a multifunctional microplate reader. • 7. Data Analysis
The IC50 (half inhibitory concentration) of a compound was obtained using the following non-linear fitting formula: Y = Bottom + (Top−Bottom)/(1+10^(∧)((LogIC50−X)*HillSlope)) [formula] • X: Compound concentration log value • Y: Compound inhibition rate (% inh)

[4] = TNFα/Smac mimetic/Z-VAD-FMK for 24 h, inhibition of necroptosis
[5] = compound 0.001-10 µM, read-out: RIPK1(IC50)

SMILES	IC50 [2] [nM]	EC50 [1, 4] [nM]	also measured
C[C@H](NC(=O)c1cn(C)c2ccc(-c3ccn4nc(NC(=O)CN5CC(O)CC5=O)nc4c3)cc12)c1ccc(F)cc1 (single isomer, unassigned) [Compound 3]	10 to 100		EC50 ([1]; Homo sapiens, HT-29, 24 h): 10 to 100 nM
CC(=O)Nc1nc2cc(-c3ccc4c(c3)c(C(=O)NC3CCc5cc(F)ccc53)cn4C)ccn2n1 (single isomer, unassigned) [Compound 127]	100 to 1000		EC50 ([1]; Homo sapiens, HT-29, 24 h): 1000 to 10000 nM
C[C@H](NC(=O)c1cn(C)c2ccc(-c3ccn4nc(NC(=O)CN5CCC(O)CC5)nc4c3)cc12)c1ccc(F)cc1 [Compound 6]	10 to 100		
C[C@H](NC(=O)c1cn(C)c2ccc(-c3ccn4nc(NC(=O)C(=O)N5CCOCC5)nc4c3)cc12)c1ccc(F)cc1 [Compound 9]	10 to 100		
C[C@H](NC(=O)c1cn(C)c2ccc(-c3ccn4nc(NC(=O)[C@@H]5CCC(=O)N5)nc4c3)cc12)c1ccc(F)cc1 [Compound 14]	10 to 100		
C[C@H](NC(=O)c1cn(C)c2ccc(-c3ccn4nc(NC(=O)CN5CCOC(C)(C)C5)nc4c3)cc12)c1ccc(F)cc1 [Compound 18]	10 to 100		
C[C@H](NC(=O)c1cn(C)c2ccc(-c3ccn4nc(NC(=O)CN5CCC6(CC5)OCCO6)nc4c3)cc12)c1ccc(F)cc1 [Compound 27]	10 to 100		
C[C@H](NC(=O)c1cn(C)c2ccc(-c3ccn4nc(NC(=O)CN5CC(C)(C#N)C5)nc4c3)cc12)c1ccc(F)cc1 [Compound 29]	10 to 100		
C[C@H](NC(=O)c1cn(C)c2ccc(-c3ccn4nc(NC(=O)CN5CCC(N6CCOCC6)CC5)nc4c3)cc12)c1ccc(F)cc1 [Compound 38]	10 to 100		
C[C@H](NC(=O)c1cn(C)c2ccc(-c3ccn4nc(NC(=O)CN5C[C@H]6C[C@@H]5CO6)nc4c3)cc12)c1ccc(F)cc1 [Compound 39]	10 to 100		
C[C@H](NC(=O)c1cn(C)c2ccc(-c3ccn4nc(NC(=O)CN(C)C)nc4c3)cc12)c1ccc(F)cc1 [Compound 40]	10 to 100		
C[C@H](NC(=O)c1cn(C)c2ccc(-c3ccn4nc(NC(=O)CN5CC(F)(F)C5)nc4c3)cc12)c1ccc(F)cc1 [Compound 42]	10 to 100		
C[C@@H]1CN(CC(=O)Nc2nc3cc(-c4ccc5c(c4)c(C(=O)N[C@@H](C)c4ccc(F)cc4)cn5C)ccn3n2)C[C@H](C)O1 [Compound 46]	10 to 100		
C[C@H](NC(=O)c1cn(C)c2ccc(-c3ccn4nc(NC(=O)CN5CCN(C)CC5)nc4c3)cc12)c1ccc(F)cc1 [Compound 51]	10 to 100		
C[C@H](NC(=O)c1cn(C)c2ccc(-c3ccn4nc(NC(=O)CN5C6CC7CC(C6)C(O)C5C7)nc4c3)cc12)c1ccc(F)cc1 (some centres unmarked) [Compound 59]		< 1	IC50 [2, 5]: 10 to 100 nM
C[C@H](NC(=O)c1cn(C)c2ccc(-c3ccn4nc(NC(=O)CN5CCOC[C@@H]5C)nc4c3)cc12)c1ccc(F)cc1 [Compound 60]	10 to 100		
COCCNCC(=O)Nc1nc2cc(-c3ccc4c(c3)c(C(=O)N[C@@H](C)c3ccc(F)cc3)cn4C)ccn2n1 [Compound 68]	10 to 100		
C[C@H](NC(=O)c1cn(C)c2ccc(-c3ccn4nc(NC(=O)CN5CC6CCC(C5)O6)nc4c3)cc12)c1ccc(F)cc1 [Compound 71]	10 to 100		
C[C@H](NC(=O)c1cn(C)c2ccc(-c3ccn4nc(NC(=O)CN(C)CCO)nc4c3)cc12)c1ccc(F)cc1 [Compound 74]	10 to 100		IC50 [3]: 10 to 100 nM
C[C@H](NC(=O)c1cn(C)c2ccc(-c3ccn4nc(NC(=O)CN5CCOCC5)nc4c3)cc12)c1ccc(F)cc1 [Compound 75]	1 to 10		IC50 [3]: 10 to 100 nM
C[C@H](NC(=O)c1cn(C)c2ccc(-c3ccn4nc(NC(=O)C5CCOC5)nc4c3)cc12)c1ccc(F)cc1 (some centres unmarked) [Compound 106]	10 to 100		
Cn1cc(C(=O)N[C@H]2CCc3ccc(F)cc32)c2cc(-c3ccn4nc(NC(=O)[C@H]5CCCO5)nc4c3)ccc21 [Compound 121]	10 to 100		
Cn1cc(C(=O)Nc2nc3cc(-c4ccc5c(c4)c(C(=O)N[C@H]4CCc6ccc(F)cc64)cn5C)ccn3n2)cn1 [Compound 122]	100 to 1000		
CC(=O)Nc1nc2cc(-c3ccc4c(c3)c(C(=O)N[C@H]3CCc5ccc(F)cc53)cn4C)ccn2n1 [Compound 124]	10 to 100		EC50 ([1]; Homo sapiens, HT-29, 24 h): 1 to 10 nM
Cn1cc(C(=O)N[C@H]2CCc3cc(C#N)ccc32)c2cc(-c3ccn4nc(NC(=O)C5CC5)nc4c3)ccc21 [Compound 130]	10 to 100		
CC(=O)Nc1nc2cc(-c3ccc4c(c3)c(C(=O)N[C@H]3CCCc5cc(F)ccc53)cn4C)ccn2n1 [Compound 138]			IC50 [2, 5]: 10 to 100 nM

SMILES	IC50 [2] [nM]	EC50 [1, 4] [nM]	also measured
Cn1cc(C(=O)N2CC(F)CC2c2ccc(F)cc2)c2cc(-c3ccn4nc(NC(=O)C5CC5)nc4c3)ccc21 (centres unmarked) [Compound 156]	10 to 100		
Cn1cc(C(=O)N[C@H](c2ccc(F)cc2)C(F)F)c2cc(-c3ccn4nc(NC(=O)C5CC5)nc4c3)ccc21 [Compound 161]	1 to 10		
C[C@@H](c1ccc(F)cc1)N(C)C(=O)c1cn(C)c2ccc(-c3ccn4nc(NC(=O)C5CC5)nc4c3)cc12 [Compound 175]	10 to 100		EC50 ([1]; Homo sapiens, HT-29, 24 h): < 1 nM
CC(C(=O)Nc1nn(C)c2ccc(-c3ccn4nc(NC(=O)C5CC5)nc4c3)cc12)c1ccc(F)cc1 (centres unmarked) [Compound 182]	100 to 1000		
Cn1nc(C(=O)N[C@@H](CF)c2ccc(F)cc2)c2cc(-c3ccn4nc(NC(=O)N5CCOCC5)nc4c3)ccc21 [Compound 189]		< 1	
Cn1nc(C(=O)N[C@@H](CF)c2ccc(F)cc2)c2cc(-c3ccn4nc(NC(=O)C5CC5)nc4c3)ccc21 [Compound 190]		< 1	
C[C@H](NC(=O)c1nn(C)c2ccc(-c3ccn4nc(NC(=O)C5CC5)nc4c3)cc12)c1ccc(F)cc1 [Compound 192]		< 1	
C[C@H](NC(=O)c1nn(C)c2ccc(-c3ccn4nc(NC(=O)[C@H]5CCCO5)nc4c3)cc12)c1ccc(F)cc1 [Compound 193]		< 1	
C[C@H](NC(=O)c1nn(C)c2ccc(-c3ccn4nc(NC(=O)N5CCOCC5)nc4c3)cc12)c1ccc(F)cc1 [Compound 195]		< 1	
C[C@H](NC(=O)c1nn(C)c2ccc(-c3ccn4nc(NC(=O)CN5CCOCC5)nc4c3)cc12)c1ccc(F)cc1 [Compound 196]	10 to 100		
CC[C@H](NC(=O)c1cn(C)c2ccc(-c3ccn4nc(NC(=O)CN5CCOCC5)nc4c3)cc12)c1ccc(F)cc1 [Compound 197]		< 1	
CCn1cc(C(=O)N[C@@H](CF)c2ccc(F)cc2)c2cc(-c3ccn4nc(NC(=O)N5CCOCC5)nc4c3)ccc21 [Compound 200]		< 1	
CN(C(=O)c1cn(C)c2ccc(-c3ccn4nc(NC(=O)C5CC5)nc4c3)cc12)[C@H]1CCc2cc(F)ccc21 [Compound 205]		1 to 10	
CC(c1ccc(F)cc1)n1cnc(-c2cn(C)c3ccc(-c4ccn5nc(NC(=O)c6cnn(C)c6)nc5c4)cc23)n1 (centres unmarked) [Compound 208]		100 to 1000	
CC(c1ccc(F)cc1)n1cnc(-c2cn(C)c3ccc(-c4ccn5nc(NC(=O)C6CC6F)nc5c4)cc23)n1 (centres unmarked) [Compound 209]		100 to 1000	
CC(c1ccc(F)cc1)n1cnc(-c2cn(C)c3ccc(-c4ccn5nc(NC(=O)C6CC6)nc5c4)cc23)n1 (centres unmarked) [Compound 210]		100 to 1000	IC50 [2, 5]: 1000 to 10000 nM
Cn1cc(C2=NC(c3ccc(F)cc3)CO2)c2cc(-c3ccn4nc(NC(=O)C5CC5F)nc4c3)ccc21 (centres unmarked) [Compound 211]		10 to 100	
Cn1cc(C2=NC(c3ccc(F)cc3)CO2)c2cc(-c3ccn4nc(NC(=O)C5CC5)nc4c3)ccc21 (centres unmarked) [Compound 212]		10 to 100	
Cn1cc(C(=O)Nc2nc3cc(-c4ccc5c(c4)c(C4=NC(c6ccc(F)cc6)CO4)cn5C)ccn3n2)cn1 (centres unmarked) [Compound 213]		10 to 100	
COCCn1cc(C(=O)N[C@@H](CF)c2ccc(F)cc2)c2cc(-c3ccn4nc(NC(=O)N5CCOCC5)nc4c3)ccc21 [Compound 214]		10 to 100	
COCCn1cc(C(=O)N[C@@H](CF)c2ccc(F)cc2)c2cc(-c3ccn4nc(NC(=O)CC#N)nc4c3)ccc21 [Compound 215]		10 to 100	
COC(C)C(=O)Nc1nc2cc(-c3ccc4c(c3)c(-c3nncn3C(C)c3ccc(F)cc3)cn4C)ccn2n1 (centres unmarked) [Compound 216]		10 to 100	
CC(c1ccc(F)cc1)n1cnnc1-c1cn(C)c2ccc(-c3ccn4nc(NC(=O)C5CCOC5)nc4c3)cc12 (centres unmarked) [Compound 217]		10 to 100	
C[C@H](NC(=O)c1cn(C)c2ccc(-c3ccn4nc(N5CCOCC5=O)nc4c3)cc12)c1ccc(F)cc1 [Compound 218]		10 to 100	
C[C@H](NC(=O)c1cn(C)c2ccc(-c3ccn4nc(N5CCOCC5)nc4c3)cc12)c1ccc(F)cc1 [Compound 219]		1 to 10	

— patent EP4782448A1, “SUBSTITUTED PYRIDOTRIAZOLE COMPOUND, AND PREPARATION METHOD THEREFOR AND USE THEREOF” (Origiant Pharmaceutical Co., Ltd., priority 2023, dated 2025)
